One may read the IC50 as the midpoint of a concentration-inhibition curve.

Counter-ions that a name gives are not always drawn.

Data on one compound can be found in patent publication US5789439A, “Pharmaceutical use of forskolin derivatives” (Nippon Kayaku Kabushiki Kaisha, priority 1990, dated 1998).

The subject of experiment [1] is ADP-induced aggregation of rabbit blood thrombocyte. Nature of the experiment: ADP-induced platelet aggregation inhibition, rabbit platelet rich plasma. The experiment is classed as cell-based. The note with it: Oryctolagus cuniculus, rabbit PRP, ADP 3×10^-6 M, mean, n = 5, read-out: Platelet aggregation inhibitory action (IC50), ADP-induced aggregation. The protocol: The platelet aggregation inhibitory action of NKH-477 was examined on collagen-induced aggregation and ADP-induced aggregation of rabbit blood thrombocyte. The male Japanese white rabbits (body weight: 2.4-2.8 kg, procured from Tokyo Experimental Animals Co., Ltd.) were divided into groups of 5. The rabbits were etherized and blood was collected from the carotid artery of each rabbit. A 3.8% sodium citrate solution (final concentration: 0.38%) was added to a portion of blood collected from each group of rabbits to obtain platelet rich plasma (PRP). The remaining portion of blood was centrifuged at 3,000 r.p.m. for 15 minutes to obtain platelet poor plasma (PPP). First, permeability of PRP and PPP was determined by using an aggregometer (RMA-31 mfd. by Rika Denki Kogyo K. K.) and set at 0% and 100%, respectively. Separately from the above operation, 250 μl of PRP was placed in a cuvette and after preliminary heating at 37° C. for 2 minutes, 20 μl of specimen was added and incubated under stirring for 2 minutes. Then 10 μl of ADP (Sigma, final conc.: 3×10^-6 M) or collagen (Hormon-Chemie, final conc.: 10 μg/ml) was added and the transmission rate was measured. The maximum transmission rate observed in this operation was termed as the maximum aggregation rate. Recording in this operation was conducted on an ink-written recorder (B-381L mfd. by Rika Denki Kogyo K. K.). […]

The subject of the next experiment is ADP-induced aggregation. Description: ADP-induced aggregation after intravenous administration to healthy adults. The experiment is classed as in vivo, healthy adults (human). The note with it: i.v. 0.8 μg/kg/min for one hour, mean of four subjects. The protocol: (§1) A freeze-dried preparation comprising NKH-477 was dissolved in a physiological saline and administered intravenously to four healthy adults at a rate of 0.8 μg/kg/min for one hour. The degrees of ADP-induced aggregation, epinephrine-induced aggregation and collagen-induced aggregation upon end of administration were measured and compared with those before administration (each figure is the average of measurements on the four subjects).

For a further experiment, the system named is canine coronary artery. Description: Spasmolytic effect on KCl-induced contraction, canine coronary artery ring. The note with it: for Inhibition rate, Coronary artery: 30 mM KCl, papaverine 10^-4 M = 100%, mean ± SE, n = 6. The protocol: (§2) The canine coronary and basilar arteries were extirpated under anesthesia with pentobarbital to prepare the 3 mm wide ring preparation. Each preparation was suspended in a 10-ml organ bath filled with a Krebs-Henseleit solution by applying a static tension of 1.5 g (for the coronary artery) and 1.0 g (for the basilar artery). The nutrient solution was maintained at 37° C. and aerated with a 95% 02 /5% CO2 gas. The isometric mascular tension was measured with an FD pickup (TB-611T mfd. by Nihon Kohden K. K.) and recorded on a recorder (TI-104 mfd. by Tokai IRIKA K. K.).
(§3) After about 2 hours of equilibrium time, contraction was induced with 30 mM of KCl (for coronary artery) and 35 mM of KCl (for basilar artery), and after contraction was stabilized, NKH-477 was administered cumulatively. The spasmolytic effect was expressed as percentages of the inhibition, with the maximal inhibition obtained with papaverine hydrochloride (10^-4 M) being supposed to have shown 100% inhibition.

Experiment [2] concerns total peripheral vascular resistance. Description: Effect on peripheral vascular resistance in human. To be noted: i.v. 0.4 μg/kg/min, 40 minutes from start; four healthy adults; saline 1.7%. The experiment is classed as in vivo. The procedure: (3) Effect on peripheral vascular resistance in human was examined.
A freeze-dried preparation comprising NKH-477 was dissolved in a physiological saline and continuously administered intravenously to four healthy adults at a rate of 0.4 μg/kg/min for one hour.
The rate of reduction of total peripheral vascular resistance after 40 minutes from the start of administration was determined for each subject from mean blood pressure and cardiac output calculated from Ultrasonic cardiography (UCG).

Another experiment deals with canine basilar artery. Nature of the experiment: Spasmolytic effect on KCl-induced contraction, canine basilar artery ring. The note with it: for Inhibition rate, Basilar artery: 35 mM KCl, papaverine 10^-4 M = 100%, mean ± SE, n = 3. The procedure:
as §2, §3

Experiment [3] relates to collagen-induced aggregation of rabbit blood thrombocyte. Description: Collagen-induced platelet aggregation inhibition, rabbit platelet rich plasma. The experiment is classed as cell-based. The procedure:
The platelet aggregation inhibitory action of NKH-477 was examined on collagen-induced aggregation and ADP-induced aggregation of rabbit blood thrombocyte. The male Japanese white rabbits (body weight: 2.4-2.8 kg, procured from Tokyo Experimental Animals Co., Ltd.) were divided into groups of 5. The rabbits were etherized and blood was collected from the carotid artery of each rabbit. A 3.8% sodium citrate solution (final concentration: 0.38%) was added to a portion of blood collected from each group of rabbits to obtain platelet rich plasma (PRP). The remaining portion of blood was centrifuged at 3,000 r.p.m. for 15 minutes to obtain platelet poor plasma (PPP). First, permeability of PRP and PPP was determined by using an aggregometer (RMA-31 mfd. by Rika Denki Kogyo K. K.) and set at 0% and 100%, respectively. Separately from the above operation, 250 μl of PRP was placed in a cuvette and after preliminary heating at 37° C. for 2 minutes, 20 μl of specimen was added and incubated under stirring for 2 minutes. Then 10 μl of ADP (Sigma, final conc.: 3×10^-6 M) or collagen (Hormon-Chemie, final conc.: 10 μg/ml) was added and the transmission rate was measured. The maximum transmission rate observed in this operation was termed as the maximum aggregation rate. Recording in this operation was conducted on an ink-written recorder (B-381L mfd. by Rika Denki Kogyo K. K.). NKH-477 was dissolved in a physiological saline to make concentrations of 10^-8 to 10^-5 M. Forskolin dissolved in ethanol was used as control.

The subject of experiment [4] is epinephrine-induced aggregation. Description: Epinephrine-induced aggregation after intravenous administration to healthy adults. The experiment is classed as in vivo, healthy adults (human). To be noted: i.v. 0.8 μg/kg/min for one hour, mean of four subjects. The protocol: as §1

For the compound `C=C[C@@]1(C)CC(=O)[C@]2(O)[C@@]3(C)[C@@H](O)CCC(C)(C)[C@@H]3[C@H](OC(=O)CCN(C)C)[C@H](OC(C)=O)[C@@]2(C)O1` [NKH-477, 6-(3-dimethylaminopropionyl)forskolin hydrochloride], the IC50 in experiment [1] was 234 nM; with canine coronary artery (Canis lupus familiaris, KCl-induced contraction, n=6) it was 67.3 nM; with canine basilar artery (Canis lupus familiaris, KCl-induced contraction, n=3), 102 nM; in experiment [3] (Oryctolagus cuniculus, Platelet, rabbit PRP, collagen 10 μg/ml, mean, n = 5, read-out: Platelet aggregation inhibitory action (IC50), Collagen-induced aggregation), 302 nM. Also, in the experiment on ADP-induced aggregation (before administration 68.5%), the “ADP-induced aggregation upon end of administration” value stood at 57.5%. Moreover, the “Inhibition rate, ADP-induced aggregation” value with ADP-induced aggregation came out at 21.7%. Moreover, the “inhibitory action against KCl-induced contraction in the coronary artery” value with canine coronary artery (Table 3, in words) is given as “concentration-dependent inhibitory action”. The “Inhibition rate, Coronary artery” value was 6.1 ± 1.6% in the experiment on canine coronary artery (line 1 of 5, printed 10^-9 M); 23.3 ± 3.2% in the experiment on canine coronary artery (line 2 of 5, printed 10^-9 M); 58.8 ± 3.9% in the experiment with canine coronary artery (line 3 of 5, printed 10^-9 M); 86.7 ± 1.5% with canine coronary artery (line 4 of 5, printed 10^-9 M); 94.5 ± 1.3% in the experiment with canine coronary artery (line 5 of 5, printed 10^-9 M). Further, in experiment [2], the “average reduction rate of total peripheral vascular resistance” value is 19.7%. The “inhibitory action against KCl-induced contraction in the basilar artery” value with canine basilar artery (Table 3, in words) was “concentration-dependent inhibitory action”. The “Inhibition rate, Basilar artery” value in the experiment on canine basilar artery (line 1 of 5) is on record as 3.8 ± 2.0%; in the experiment on canine basilar artery (line 2 of 5) it was 22.1 ± 3.3%; with canine basilar artery (line 3 of 5), 52.0 ± 5.3%; in the experiment on canine basilar artery (line 4 of 5), 78.3 ± 1.2%; in the experiment with canine basilar artery (line 5 of 5), 89.2 ± 0.6%. For the same compound, the “platelet aggregation inhibitory action relative to forskolin” value in experiment [3] (from Table 1-1 (collagen- and ADP-induced), vs forskolin) is given as “over 10 times”. For the same compound, the “Epinephrin-induced aggregation upon end of administration” value in experiment [4] (before administration 47.0%) is on record as 31.8%. Besides, in experiment [4], the “Inhibition rate, Epinephrin-induced aggregation” value is given as 39.6%.
